Source: patent US8722910B2, “Diyne compositions” (Evolva AG, priority 2009, dated 2014)
Values after ≈ are worked out from the molar mass of the structure shown. Where two headings read alike, the source gives them in different places.

Tests used:
[1] = tested on: Enterobacter faecalis 29212; test: In vitro Antibacterial Activity; assay type: cell-based
[2] = tested on: Escherichia coli 700; test: In vitro Antibacterial Activity; assay type: cell-based
[3] = tested on: H. capsulatum; test: microbe, parasite or virus in culture; assay type: cell-based; conditions: Histoplasma capsulatum, 120 h
[4] = tested on: C. krusei; test: Susceptibility of clinical isolates (MIC, broth dilution); assay type: cell-based; conditions: Pichia kudriavzevii; C. krusei (n = 27); M27-A3, 24 hrs; read at 50% inhibition (potassium salt, Voriconazole), 100% (Amphotericin), MEC (Caspofungin); read-out: MIC90
Protocol: (§1) The efficacy of compound IV″ was investigated on 563 clinical isolates of 33 human fungal pathogens. […] For species with n≧10, the MIC90 (MIC, minimal inhibitory concentration) is given as ng/ml. For species with n≦10, the MIC range is given as ng/ml. 24 h and 48 h reads are indicated (Table 1).
(§2) The in vitro efficacy of antifungal compounds is determined in susceptibility assays, which are indicative for the spectrum and potency of a compound. Susceptibilities are reported as minimal inhibitory concentrations (MIC, as ng/ml or μg/ml) required to inhibit growth to a defined degree compared to the drug free control. The MIC90 defines the MIC required to inhibit growth for ≧90% of the strains of a population tested.
(§3) The MIC90 was calculated for the indicated species.

[5] = tested on: C. parapsilosis; test: as above; assay type: cell-based; conditions: Lodderomyces parapsilosis
Protocol: as §1, §2, §3

[6] = tested on: C. lusitaniae; test: as above; assay type: cell-based; conditions: Clavispora lusitaniae; C. lusitaniae (n = 24); M27-A3, 24 hrs; read at 50% inhibition (potassium salt, Voriconazole), 100% (Amphotericin), MEC (Caspofungin); read-out: MIC90
Protocol: as §1, §2, §3

[7] = tested on: C. glabrata; test: as above; assay type: cell-based; conditions: Nakaseomyces glabratus
Protocol: as §1, §2, §3

[8] = tested on: C. tropicalis; test: as above; assay type: cell-based; conditions: Candida tropicalis; C. tropicalis (n = 35); M27-A3, 24 hrs; read at 50% inhibition (potassium salt, Voriconazole), 100% (Amphotericin), MEC (Caspofungin); read-out: MIC90
Protocol: as §1, §2, §3

[9] = tested on: C. dubliniensis; test: as above; assay type: cell-based; conditions: Candida dubliniensis; C. dubliniensis (n = 25); M27-A3, 24 hrs; read at 50% inhibition (potassium salt, Voriconazole), 100% (Amphotericin), MEC (Caspofungin); read-out: MIC90
Protocol: as §1, §2, §3

[10] = tested on: C. glabrata, Fluconazole, Voriconazole, Itraconazole and/or Caspofungin resistant isolates; test: Susceptibility of resistant clinical isolates (MIC, broth dilution); assay type: cell-based; conditions: Nakaseomyces glabratus; C. glabrata resistant (n = 21): isolates resistant to Fluconazole, Itraconazole, Voriconazole and Caspofungin; read-out: MIC90
Protocol: as §1, §3

[11] = tested on: Coccidioides spp.; test: microbe, parasite or virus in culture; assay type: cell-based; conditions: Coccidioides, 48 h
[12] = tested on: B. dermatitidis; test: Susceptibility of clinical dimorphic fungi (MIC); assay type: cell-based; conditions: Blastomyces dermatitidis; B. dermatitidis (n = 30); CLSI M38-A2; 50% growth reduction; MIC read at 96 h
[13] = tested on: C. albicans; test: Fatty acid competition (antagonism) in 96-well plates; conditions: 48 h
[14] = tested on: C. albicans; test: Rat model of systemic candidiasis, single intravenous infusion, liver burden; assay type: in vivo; conditions: rats
[15] = tested on: C. albicans; test: Rat model of systemic candidiasis, single oral administration, kidney burden; assay type: in vivo; conditions: rats
[16] = Stability of diyne salts on storage (HPLC content); assay type: physicochemical
Protocol: Potassium (Z)-14-(furan-2-yl)tetradeca-9-en-11,13-diynoate was kept as a crystalline solid for 6 month at 2-8° C. The content of potassium (Z)-14-(furan-2-yl)tetradeca-9-en-11,13-diynoate was determined by HPLC against a reference sample kept at −20° C. After 6 months of storage characteristics such as colour, water content, XRPD profile, of the solid had not changed and it was still a beige solid. […] Also no change in the impurity profile was observed after 6 months storage.
Potassium (Z)-14-(furan-2-yl)tetradeca-9-en-11,13-diynoate was also kept as a crystalline solid for 6 month at 25° C., 60% RH. Analysis was performed as described above. After 6 months of storage characteristics of the solid has not changed and it was still a beige solid. […] Also no change in the impurity profile was observed after 6 months storage.
Potassium (Z)-14-(furan-2-yl)tetradeca-9-en-11,13-diynoate was also kept as a crystalline solid for 6 month at 40° C., 75% RH. Analysis was performed as described above. After 6 months of storage the appearance of the solid had changed to a brown solid. Furthermore, a decrease in the content of potassium (Z)-14-(furan-2-yl)tetradeca-9-en-11,13-diynoate to 96% was observed as analysed by HPLC.
Sodium (Z)-14-(furan-2-yl)tetradeca-9-en-11,13-diynoate was kept as an amorphous solid at room temperature. […] Furthermore the salt was dissolved in an aqueous solution and already after few days the content of sodium (Z)-14-(furan-2-yl)tetradeca-9-en-11,13-diynoate was reduced by 35%, thus proving strong instability of the amorphous salt form.

[17] = tested on: C. lusitaniae; test: In vitro antifungal activity vs. yeasts (MIC/MFC); assay type: cell-based; conditions: Clavispora lusitaniae
[18] = tested on: ergosterol biosynthesis; test: 13C-acetate incorporation into ergosterol; assay type: cell-based, Candida albicans; conditions: drug at about its MIC, added after the first 15 minutes
[19] = tested on: C. guilliermondii; test: In vitro antifungal activity vs. yeasts (MIC/MFC); assay type: cell-based; conditions: Meyerozyma guilliermondii; C. guilliermondii (n = 1); 90% inhibition endpoint
[20] = tested on: all Candida strains; test: MIC range over all Candida strains tested; assay type: cell-based; conditions: Table 13 strains
[21] = tested on: C. parapsilosis; test: In vitro antifungal activity vs. yeasts (MIC/MFC); assay type: cell-based; conditions: Lodderomyces parapsilosis; C. parapsilosis (n = 2); 90% inhibition endpoint
[22] = tested on: C. glabrata; test: In vitro antifungal activity vs. yeasts (MIC/MFC); assay type: cell-based; conditions: Nakaseomyces glabratus; C. glabrata (n = 1); 90% inhibition endpoint
[23] = tested on: C. albicans; test: Effect on the morphology of growing Candida albicans cultures; assay type: cell-based; conditions: inhibiting concentrations
[24] = tested on: C. krusei; test: In vitro antifungal activity vs. yeasts (MIC/MFC); assay type: cell-based; conditions: Pichia kudriavzevii; C. krusei (n = 1); 90% inhibition endpoint
[25] = tested on: C. lipolytica; test: In vitro antifungal activity vs. yeasts (MIC/MFC); assay type: cell-based; conditions: Yarrowia lipolytica
[26] = tested on: Malassezia furfur; test: In vitro antifungal activity vs. yeasts (MIC/MFC); assay type: cell-based; conditions: Malassezia furfur
[27] = tested on: Candida albicans; test: In vitro antifungal activity vs. yeasts (MIC/MFC); assay type: cell-based; conditions: Candida albicans (n = 8); 90% inhibition endpoint
[28] = tested on: C. albicans; test: Susceptibility of clinical isolates (MIC, broth dilution); assay type: cell-based; conditions: Candida albicans; C. albicans (n = 20); M27-A3, 24 hrs; read at 50% inhibition (potassium salt, Voriconazole), 100% (Amphotericin), MEC (Caspofungin); read-out: MIC90
Protocol: as §1, §2, §3

[29] = tested on: A. niger; test: Susceptibility of clinical Aspergillus isolates (MIC); assay type: cell-based; conditions: A. niger (n = 6), CLSI M38-A2, 50% growth inhibition, 24 h, read-out: MIC50
Protocol: as §1
(§4) Susceptibilities were determined according to the CLSI reference method M38-A2.

[30] = tested on: A. fumigatus; test: as above; assay type: cell-based; conditions: Aspergillus fumigatus; A. fumigatus (n = 20); CLSI M38-A2; 50% growth inhibition; 24 h; read-out: MIC50
Protocol: as §1, §4

[31] = tested on: A. versicolor; test: as above; assay type: cell-based; conditions: Aspergillus versicolor; A. versicolor (n = 3); CLSI M38-A2; 50% growth inhibition; 24 h; read-out: MIC50
Protocol: as §1, §4

[32] = tested on: A. terreus; test: as above; assay type: cell-based; conditions: Aspergillus terreus; A. terreus (n = 5); CLSI M38-A2; 50% growth inhibition; 24 h; read-out: MIC50
Protocol: as §1, §4

[33] = tested on: A. nidulans; test: as above; assay type: cell-based; conditions: 24 h
Protocol: as §1, §4

[34] = tested on: A. flavus; test: as above; assay type: cell-based; conditions: Aspergillus flavus; A. flavus (n = 2); CLSI M38-A2; 50% growth inhibition; 24 h; read-out: MIC50
Protocol: as §1, §4

[35] = tested on: Staphylococcus aureus 29213; test: In vitro Antibacterial Activity; assay type: cell-based

Compound: CC1(C)S[C@@H]2[C@H](NC(=O)[C@H](N)c3ccccc3)C(=O)N2[C@H]1C(=O)O [Ampicillin, reference compound]
- MIC90 [1]: 0.78 µg/mL (≈ 2.23 µM)
- MIC90 [2]: 3.12 µg/mL (≈ 8.94 µM)

Compound: CC[C@H](C)C[C@H](C)CCCCCCCCC(=O)N[C@H]1C[C@@H](O)[C@@H](NCCN)NC(=O)[C@@H]2[C@@H](O)CCN2C(=O)[C@H]([C@H](O)CCN)NC(=O)[C@H]([C@H](O)[C@@H](O)c2ccc(O)cc2)NC(=O)[C@@H]2C[C@@H](O)CN2C(=O)[C@H]([C@@H](C)O)NC1=O [Caspofungin]
- MIC90 [3]: 2 µg/mL (≈ 1.83 µM)
- MIC90 [4]: 2 µg/mL
- MIC90 ([5]; C. parapsilosis (n = 37), M27-A3, 24 hrs, read at 50% inhibition (potassium salt, Voriconazole), 100% (Amphotericin), MEC (Caspofungin), read-out: MIC90): 8 µg/mL
- MIC90 [6]: 2 µg/mL
- MIC90 ([7]; C. glabrata (n = 25), M27-A3, 24 hrs, read at 50% inhibition (potassium salt, Voriconazole), 100% (Amphotericin), MEC (Caspofungin), read-out: MIC90): 2 µg/mL
- MIC90 [8]: 1 µg/mL
- MIC90 [9]: 1 µg/mL
- MIC90 [10]: 2 µg/mL (≈ 1.83 µM)
- MIC90 [11]: 0.5 µg/mL (≈ 0.457 µM)
- MIC90 [12]: 4 µg/mL (≈ 3.66 µM)
- effect of oleic acid / stearic acid on susceptibility [13]: oleic acid did not decrease the susceptibility

Compound: O=C([O-])CCCCCCC/C=C\C#CC#Cc1ccco1.[Na+] [Compound V″, sodium (Z)-14-(furan-2-yl)tetradeca-9-en-11,13-diynoate]
- decrease of liver fungal burden (CFU per gram tissue) ([14]; single intravenous infusion 12 mg/kg, 24 h): 93%
- decrease of kidney fungal burden (CFU per gram tissue) ([15]; single oral dose 17 mg/kg, 6 h): 57%
- appearance after storage ([16]; amorphous solid at room temperature, short term storage): the colour darkened
- reduction of content in aqueous solution ([16]; aqueous solution, after few days): 35%

Compound: OC(Cn1cncn1)(Cn1cncn1)c1ccc(F)cc1F [Fluconazole, reference compound]
- reduction of tissue burden (cfu/g tissue), comparator ([14]; liver, vs vehicle at 24 hours, dose not given): 93%
- MIC [17]: 0.125 µg/mL (≈ 0.408 µM)
- reduction of tissue burden (cfu/g tissue), comparator ([15]; vs vehicle at 24 hours, dose not given): 90%
- net biosynthesis of ergosterol (13C-acetate incorporation) [18]: inhibited the incorporation of acetate into ergosterol
- MIC [19]: 4 µg/mL (≈ 13.1 µM)
- MIC range for all Candida strains [20]: 0.125 to 16 µg/mL
- MIC [21]: 1 µg/mL (≈ 3.27 µM)
- MIC [22]: 2 µg/mL (≈ 6.53 µM)
- effect on hyphal tube formation ([23]; microscopy): did not affect hyphal tube formation
- effect on cell growth ([23]; microscopy and MTT): permitted fungal growth (albeit at a reduced rate)
- MIC [24]: 16 µg/mL (≈ 52.2 µM)
- MIC [25]: 0.125 µg/mL (≈ 0.408 µM)
- MIC [26]: 0.125 µg/mL (≈ 0.408 µM)
- MIC [27]: 1 µg/mL (≈ 3.27 µM)

Compound: C[C@@H](c1ncncc1F)[C@](O)(Cn1cncn1)c1ccc(F)cc1F [Voriconazole]
- MIC90 [3]: 0.125 µg/mL (≈ 0.358 µM)
- MIC90 [4]: 0.5 µg/mL
- MIC90 ([5]; 24 h): 0.125 µg/mL (≈ 0.358 µM)
- MIC90 [6]: 0.03 µg/mL
- MIC90 ([7]; 24 h): 0.125 µg/mL (≈ 0.358 µM)
- MIC90 [28]: 0.03 µg/mL
- MIC90 [8]: 0.03 µg/mL
- MIC90 [9]: 0.016 µg/mL
- MIC90 [11]: 0.125 µg/mL (≈ 0.358 µM)
- MIC90 [12]: 0.25 µg/mL (≈ 0.716 µM)
- MIC50 [29]: 1 µg/mL (≈ 2.86 µM)
- MIC50 [30]: 0.25 µg/mL (≈ 0.716 µM)
- MIC50 [31]: 0.25 µg/mL (≈ 0.716 µM)
- MIC50 [32]: 0.25 µg/mL (≈ 0.716 µM)
- MIC50 [33]: 0.125 µg/mL (≈ 0.358 µM)
- MIC50 [34]: 0.5 µg/mL (≈ 1.43 µM)
- effect of oleic acid / stearic acid on susceptibility [13]: oleic acid did not decrease the susceptibility

Compound: Gentamicin [reference compound]
- MIC90 [35]: Gentamicin—0.78 μg/ml
